Experimental data published in US6887862B2, “Method for improving treatment selectivity and efficacy using intravascular photodynamic therapy” (Miravant Systems, Inc., priority 2001, dated 2005).
Entries after “also recorded” stand apart in the source; their conditions may differ. One block for each compound: values may come before it.

Key:
rat carotid artery = experiment: Intravascular PDT treatment of rat carotid artery, histology (H&E) and clinical observation; type: in vivo; conditions: for Acellularity in the medial wall / PDT effect / damage in surrounding tissue: balloon blood exclusion; for Adverse symptoms in animals / PDT-induced damage in surrounding tissue (histology) / Acellularity within the media (H&E): blue light approximately 458 nm
From the text: The central lumen of this catheter was designed to allow passage of an optical fiber having a diffuser at its distal end. The fiber was positioned such that the diffusing section was centered within the light delivery balloon, thereby providing intravascular light delivery with minimal absorption by blood. Excitation was typically provided by a laser source at the proximal end of the device, which was focused on the proximal end of the fiber-optic diffuser. Typical wavelengths used were 405 nm, 407 nm, 413 nm, 436 nm, 442 nm, 458 nm, 514 nm, 532 nm, and the general range of 570-610 nm.
The surgery was performed by doing a cutdown to allow access to the right femoral artery, followed by insertion of the light delivery catheter. The catheter was then passed up through the iliac and abdominal aorta, through the aortic arch and into the left carotid artery. Once in place, the balloon was inflated to approximately 1 atmosphere using a standard angioplasty inflation device. This caused the balloon to expand to the diameter of the artery, while still allowing the pressure to be kept low enough to prevent significant over-stretch of the artery.
Prior to this surgery, the rats were injected with a photosensitizer drug to allow uptake of the drug into the target tissues. […] Induction of acellularity is believed to inhibit intimal hyperplasia, the most common cause of restenosis in post-angioplasty patients.
FIG. 1 is a low magnification image of a tissue cross section taken from the throat of a rat that has received PDT therapy using intravascular red light. […] (A bare fiber diffuser was used here since complete blood elimination is not necessary at this wavelength due to the relatively high penetration of light through blood at this wavelength.) The animal was sacrificed 4 days after the PDT treatment, the throat section was harvested, embedded and stained using hematoxylin and eosin (H&E). […] A balloon was placed around the fiber light diffuser here since it is important to eliminate blood at these wavelengths due to the optical absorption of hemoglobin. […] The animal was sacrificed 5 days after the PDT treatment, the throat section was harvested, embedded and stained using hematoxylin and eosin (H&E). […] In fact, it is widely believed that viable smooth muscle cells in the media and adventia are the source of the proliferating cells that are responsible for restenosis.
In FIG. 9, the results are listed in the columns titled Max. Accell., listing the acellularity measured in the section for which the acellularity was highest and Sur. Tissue Damage, listing the degree of surrounding tissue damage. […] The desired objective was to achieve significant acellularity with minimal damage to surrounding tissue.

[1] = Optical absorption spectrum of MV6401; type: physicochemical; conditions: near 458 nm and 532 nm (FIG. 8)
[2] = Uptake of the drug within the target tissues by fluorescence microscopy and HPLC; type: in vivo; conditions: rat, systemic administration
Procedure: Prior to this surgery, the rats were injected with a photosensitizer drug to allow uptake of the drug into the target tissues. Uptake of the drug within the target tissues was confirmed by fluorescence microscopy and high pressure liquid chromatography (HPLC). […] Induction of acellularity is believed to inhibit intimal hyperplasia, the most common cause of restenosis in post-angioplasty patients. […] To our knowledge, such efficacy using intravascular light has never been achieved previously with PDT. […] This was notable since the target tissues appeared to contain a higher drug concentration and they were also located closest to the light source.

coronary artery = experiment: Intravascular PDT treatment of swine coronary artery, heart harvested after treatment; type: in vivo
[3] = rat carotid, intravascular light at wavelengths within the disclosed 390-610 nm range
[4] = rat carotid, approximately 4 hours after drug injection (FIG. 14)
[5] = intravascular red light, high PDT doses
[6] = rat carotid, approximately 2 hours after drug injection (FIG. 15)

Compound: O=C([O-])c1c(Cl)c(Cl)c(Cl)c(Cl)c1-c1c2cc(I)c(=O)c(I)c-2oc2c(I)c([O-])c(I)cc12.[Na+].[Na+] [Rose Bengal]
Acellularity in the medial wall (rat carotid artery; [3]): acellularity was induced in the medial wall
PDT effect / damage in surrounding tissue (rat carotid artery; [3]): largely sparing the surrounding tissue

Compound: CC(=O)[O-].CC(=O)[O-].CCc1c(CC)c2cc3nc(cnc4cc(OCCOCCOCCOC)c(OCCOCCOCCOC)cc4ncc4nc(cc1[n-]2)C(CCCO)=C4C)C(C)=C3CCCO.O.[Lu+3] [LuTex, lutetium texaphyrin]
Adverse symptoms in animals (rat carotid artery; [4]): no animals displayed adverse symptoms
PDT-induced damage in surrounding tissue (histology) (rat carotid artery; [4]): minimal evidence of PDT-induced damage in surrounding tissue
Acellularity within the media (H&E) (rat carotid artery; rat carotid, approximately 4 hours after drug injection, 3 days after PDT (FIG. 14)): nearly complete acellularity within the media
Acellularity in the medial wall (rat carotid artery; [3]): acellularity was induced in the medial wall
PDT effect / damage in surrounding tissue (rat carotid artery; [3]): largely sparing the surrounding tissue

Absorption (molar extinction coefficient) [1]: > 1000 L cm^−1 M^−1
Compound: C=Cc1c(C)c2[n]3c1=CC1=NC(=Cc4c(C)c5c([n]4[In]3[Cl])C(=C3N=C(C=2)[C@@H](C)[C@@H]3CCC(=O)OC)CC5=O)C(CC)=C1C [MV6401]
Clinical evidence of adverse PDT treatment effect (rat carotid artery; [3]): no clinical evidence of an adverse PDT treatment effect
Acellularity in the medial wall (rat carotid artery; [3]): acellularity was induced within the medial wall; also recorded: acellularity was induced in the medial wall
PDT effect / damage in surrounding tissue (rat carotid artery; [3]): very minimal PDT effect in the surrounding tissue; also recorded: largely sparing the surrounding tissue
PDT treatment effect in the target tissue (histology) (rat carotid artery; rat carotid, intravascular red/infrared light): little or no PDT treatment effects in the target tissue
Clinical symptoms (rat carotid artery; rat, 2 μmol/kg systemic, 458 nm, 100 J/cm^2, light 4 hours post drug (FIG. 3)): no adverse clinical symptoms
Acellularity in the vessel wall (rat carotid artery; rat, 2 μmol/kg systemic, 458 nm, 100 J/cm^2, light 4 hours post drug (FIG. 4)): complete acellularity was induced in the vessel wall
Surrounding tissue damage (inflammation and necrosis, H&E) (rat carotid artery; rat, 2 μmol/kg systemic, 458 nm, 100 J/cm^2, light 4 hours post drug, balloon device, sacrificed 5 days after PDT (FIG. 3)): minimal PDT-induced inflammation and necrosis
Localization / uptake of photosensitizer in target tissue versus surrounding tissue [2]: more strongly localized in the target tissue; also recorded: taken up preferentially in the target vessel tissue
Acellularity within the vessel media and adventia (coronary artery; blue (458 nm) or green (532 nm) intravascular light, surrounding tissue damage of the order of FIG. 6 and 7): complete acellularity can be achieved within the vessel media and adventia
PDT-induced damage to myocardium / surrounding tissue (coronary artery; intravascular blue light (458 nm) (FIG. 6)): minimal damage to the myocardium
PDT-induced damage to myocardium / surrounding tissue (coronary artery; intravascular green light (532 nm) (FIG. 7)): minimal damage to the myocardium
Acellularity in media or adventia of the vessel (coronary artery; [5]): insignificant acellularity was induced in the media or adventia of the vessel
Clinical reactions (coronary artery; [5]): severe adverse clinical reactions

Compound: benzoporphyrin derivative [BPD]
Adverse symptoms in animals (rat carotid artery; [6]): no animals displayed adverse symptoms
PDT-induced damage in surrounding tissue (histology) (rat carotid artery; [6]): minimal evidence of PDT-induced damage in surrounding tissue
Acellularity within the media (H&E) (rat carotid artery; rat carotid, approximately 2 hours after drug injection, 3 days after PDT (FIG. 15)): nearly complete acellularity within the media
Acellularity in the medial wall (rat carotid artery; [3]): acellularity was induced in the medial wall
PDT effect / damage in surrounding tissue (rat carotid artery; [3]): largely sparing the surrounding tissue
